Reference: patent publication US20240158446A1, “CYCLIC COMPOUND HAVING SELECTIVE INHIBITORY ACTION ON KRAS OVER HRAS AND NRAS” (CHUGAI SEIYAKU KABUSHIKI KAISHA, priority 2021, published 2024)
Where two headings read alike, the source gives them in different places. Where a SMILES comes first, the peptide text is derived from it. Bridges are numbered along the chain shown (N, C = ends). [ ]: non-standard residue; d: D form. The star is where a group is joined. hPhe(3,5-F2-4-CF3) = N[C@@H](CCc1cc(F)c(C(F)(F)F)c(F)c1)C(=O)O; NPrPhe(4-CF3) = CCCN[C@@H](Cc1ccc(C(F)(F)F)cc1)C(=O)O; NMeGly(cPent) = CN[C@H](C(=O)O)C1CCCC1; NMeD = CN[C@@H](CC(=O)O)C(=O)O; NMeL = CN[C@@H](CC(C)C)C(=O)O; αMeS = C[C@](N)(CO)C(=O)O; Morpholide = C1CN(*)CCO1; Aze = O=C(O)[C@@H]1CCN1; Sar = CNCC(=O)O; Allyl = C=CC*

Tests used:
[1] = biological target: GDP-bound HRAS wild-type protein (Homo sapiens, UniProt P01112); experiment: Binding to HRAS by surface plasmon resonance (SPR), Single Cycle Kinetics
[2] = tested on: human lung cancer strain NCI-H441;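 also: cell proliferation inhibition after four days measured by CellTiter-Glo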
[3] = biological target: GDP-bound NRAS wild-type protein (Homo sapiens, UniProt P01111); experiment: Binding to NRAS by surface plasmon resonance (SPR), Single Cycle Kinetics
[4] = SPR, GDP-bound HRAS wild-type protein vs GDP-bound KRAS wild-type protein
[5] = SPR, GDP-bound NRAS wild-type protein vs GDP-bound KRAS wild-type protein

Chain of GDP-bound HRAS wild-type protein (P01112 whole entry): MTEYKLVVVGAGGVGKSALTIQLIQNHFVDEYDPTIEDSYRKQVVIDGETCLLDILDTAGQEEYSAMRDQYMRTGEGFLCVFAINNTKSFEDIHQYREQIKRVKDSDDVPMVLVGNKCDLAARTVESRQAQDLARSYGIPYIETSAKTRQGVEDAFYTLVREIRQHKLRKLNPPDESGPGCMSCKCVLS
Chain of GDP-bound NRAS wild-type protein (P01111 whole entry): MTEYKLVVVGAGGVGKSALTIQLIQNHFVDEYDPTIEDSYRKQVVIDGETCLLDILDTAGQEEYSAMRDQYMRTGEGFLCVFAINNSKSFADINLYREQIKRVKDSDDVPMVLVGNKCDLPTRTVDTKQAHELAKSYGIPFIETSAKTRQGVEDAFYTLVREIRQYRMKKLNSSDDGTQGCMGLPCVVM

SMILES | IC50 [2] | HRAS/KRAS (ratio of KD value for HRAS to KD value for KRAS) [1, 4] | NRAS/KRAS (ratio of KD value for NRAS to KD value for KRAS) [3, 5] | other results
C=CCOC[C@]1(C)NC(=O)[C@@H]2CCCN2C(=O)[C@H](CCc2cc(F)c(C(F)(F)F)c(F)c2)NC(=O)CN(C)C(=O)[C@H](Cc2ccc(C(F)(F)F)cc2)N(CCC)C(=O)CN(C)C(=O)[C@@H]2CCN2C(=O)[C@H]([C@@H](C)CC)NC(=O)[C@H](CC(C)C)N(C)C(=O)C[C@@H](C(=O)N2CCOCC2)N(C)C(=O)[C@H](C2CCCC2)N(C)C1=O [PP0780] ([NMeL]I[Aze][Sar][NPrPhe(4-CF3)][Sar][hPhe(3,5-F2-4-CF3)]P[αMeS](Allyl)[NMeGly(cPent)][NMeD]-Morpholide; lactam N-11) | 527 nM | – | – | HRAS/KRAS (ratio of KD value with respect to HRAS to KD value with respect to KRAS) [1, 4]: B (a compound having 3 or more and less than 10 is denoted as B); NRAS/KRAS (ratio of KD value with respect to NRAS to KD value with respect to KRAS) [3, 5]: B (a compound having 3 or more and less than 10 is denoted as B)
CC[C@H](C)[C@@H]1NC(=O)[C@H](Cc2ccccc2)N(C)C(=O)C[C@@H](C(=O)N2CCOCC2)N(C)C(=O)[C@H](C2CCCC2)N(C)C(=O)C2(CCCC2)NC(=O)[C@@H]2CCCN2C(=O)[C@H](CCc2ccc(C(F)(F)F)c(Cl)c2)NC(=O)CN(C)C(=O)[C@H](Cc2ccc(F)cc2)N2CCCCC[C@@H](C2=O)N(C)C(=O)CN(C)C1=O [PP0961] | 53.6 nM | B (a compound having 3 or more and less than 10 is denoted as B) | B (a compound having 3 or more and less than 10 is denoted as B) | –
CCO[C@@H]1C[C@H]2C(=O)N(C)C3(CC(C)(C)C3)C(=O)N(C)[C@@H](C3CCCC3)C(=O)N(C)[C@H](C(=O)N(C)C)CC(=O)N(C)[C@H]3CCCCCc4ccc(cc4)C[C@@H](C(=O)N(C)CC(=O)N[C@@H](CCc4ccc(C(F)(F)F)c(OC)c4)C(=O)N2C1)N1CC/C=C\C[C@@H](C1=O)N(C)C(=O)CN(C)C(=O)[C@H]([C@@H](C)CC)NC3=O [PP3091] | – | B (a compound having 3 or more and less than 10 is denoted as B) | A (a compound having 10 or more and less than 20 is denoted as A) | ratio of the KD value with respect to GDP-bound HRAS wild-type protein to the KD value with respect to KRAS ([1]; SPR, KD(HRAS)/KD(KRAS)): B (a compound having 3 or more and less than 10 is denoted as B); IC50 ([2]; read-out: NCI-H441 cell proliferation inhibitory activity, 50% proliferation inhibitory concentration (IC50 value), NCI-H441, four days, CellTiter-Glo): 1.2 nM; ratio of the KD value with respect to GDP-bound NRAS wild-type protein to the KD value with respect to KRAS ([3]; SPR, KD(NRAS)/KD(KRAS)): A (a compound having 10 or more and less than 20 is denoted as A)
CCCN1C(=O)CN(C)C(=O)CN(C)C(=O)[C@H]([C@@H](C)CC)NC(=O)[C@@H]2COCCCC[C@@](C)(NC(=O)[C@@H]3C[C@@H](OCC)CN3C(=O)[C@H](CCc3cc(F)c(C(F)(F)F)c(F)c3)NC(=O)CN(C)C(=O)[C@@H]1Cc1ccc(C(F)(F)F)cc1)C(=O)N(C)[C@@H](C1CCCC1)C(=O)N(C)[C@H](C(=O)N1CCOCC1)CC(=O)N2C [PP0899] | 923 nM | B (a compound having 3 or more and less than 10 is denoted as B) | A (a compound having 10 or more and less than 20 is denoted as A) | –

Now from value to compound, other results behind:

IC50 [2] | SMILES | HRAS/KRAS (ratio of KD value for HRAS to KD value for KRAS) [1, 4] | NRAS/KRAS (ratio of KD value for NRAS to KD value for KRAS) [3, 5] | other results
44.7 nM | CCC[C@H]1C(=O)N[C@@H]([C@@H](C)CC)C(=O)N(C)CC(=O)N(C)[C@H]2C/C=C\CCN(C2=O)[C@@H](CC2CCCCC2)C(=O)N(C)CC(=O)N[C@@H](CCc2ccc(C(F)(F)F)c(OC)c2)C(=O)N2C[C@H](OCC)C[C@H]2C(=O)N(C)C2(CCC2)C(=O)N(C)[C@@H](C(CC)CC)C(=O)N(C)[C@H](C(=O)N(C)C)CC(=O)N1C [PP2333] | A (a compound having 10 or more and less than 20 is denoted as A) | A (a compound having 10 or more and less than 20 is denoted as A) | –
62.4 nM | CCC(CC)[C@H]1C(=O)N(C)[C@H](C(=O)N(C)C)CC(=O)N(C)[C@@H](COC)C(=O)N[C@@H]([C@@H](C)CC)C(=O)N(C)CC(=O)N(C)[C@H]2C/C=C\CCN(C2=O)[C@@H](Cc2ccc(C)cc2)C(=O)N(C)CC(=O)N[C@@H](CCc2ccc(Cl)c(Cl)c2)C(=O)N2CC3(CC3)C[C@H]2C(=O)N(C)C2(CC(C)(C)C2)C(=O)N1C [PP2820] | – | – | HRAS/KRAS (ratio of KD value with respect to GDP-bound HRAS wild-type protein to KD value with respect to KRAS) ([1]; SPR KD ratio HRAS/KRAS, class symbols): A (a compound having 10 or more and less than 20 is denoted as A); NRAS/KRAS (ratio of KD value with respect to GDP-bound NRAS wild-type protein to KD value with respect to KRAS) ([3]; SPR KD ratio NRAS/KRAS, class symbols): AA (a compound having 20 or more is denoted as AA)
